Experimental data reported in the supplement of paper PMC10307832.

Assays:
Experiment in all cases: relative viability (nuclei count vs DMSO), 5 days (fraction); higher = more cells survive
Kobe2602 + Crizotinib = compound: C1=CC(=CC=C1NC(=S)NNC2=C(C=C(C=C2[N+](=O)[O-])C(F)(F)F)[N+](=O)[O-])F [Kobe2602] + C[C@@H](Oc1cc(-c2cnn(C3CCNCC3)c2)cnc1N)c1c(Cl)ccc(F)c1Cl [Crizotinib] (partner 1 µM)
In short: (§1)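 Lung cancer cell lines in 1536-well plates got either a single drug or a fixed anchor-drug dose together with five library-drug doses (not always all listed) in √10 steps, by pin tool, on the day after seeding. Nuclei were counted after 5 days, and relative viability is the treated-to-vehicle ratio of nuclei counts. Values are medians of duplicate plates.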

Kobe2602 + Phenformin = compound: C1=CC(=CC=C1NC(=S)NNC2=C(C=C(C=C2[N+](=O)[O-])C(F)(F)F)[N+](=O)[O-])F [Kobe2602] + N=C(N)NC(=N)NCCc1ccccc1 [Phenformin] (partner 250 µM)
In short: as §1

Cabozantinib + Dasatinib = compound: COc1cc2nccc(Oc3ccc(NC(=O)C4(C(=O)Nc5ccc(F)cc5)CC4)cc3)c2cc1OC [Cabozantinib] + Cc1nc(Nc2ncc(C(=O)Nc3c(C)cccc3Cl)s2)cc(N2CCN(CCO)CC2)n1 [Dasatinib] (partner 0.075 µM)
In short: as §1

Zosuquidar + Bortezomib = compound: O[C@@H](COc1cccc2ncccc12)CN1CCN([C@@H]2c3ccccc3[C@@H]3[C@H](c4ccccc42)C3(F)F)CC1 [Zosuquidar] + CC(C)C[C@H](NC(=O)[C@H](Cc1ccccc1)NC(=O)c1cnccn1)B(O)O [Bortezomib] (partner 0.002 µM)
In short: as §1

| Cell Line | relative viability (Kobe2602 + Crizotinib; first compound 0.2 µM) | relative viability (Kobe2602 + Crizotinib; first compound 0.6325 µM) | relative viability (Kobe2602 + Crizotinib; first compound 2 µM) | relative viability (Kobe2602 + Crizotinib; first compound 6.325 µM) | relative viability (Kobe2602 + Crizotinib; first compound 20 µM) | relative viability (Kobe2602 + Phenformin; first compound 0.2 µM) | relative viability (Kobe2602 + Phenformin; first compound 0.6325 µM) | relative viability (Kobe2602 + Phenformin; first compound 2 µM) | relative viability (Kobe2602 + Phenformin; first compound 6.325 µM) | relative viability (Kobe2602 + Phenformin; first compound 20 µM) | relative viability (Cabozantinib + Dasatinib; first compound 0.02 µM) | relative viability (Cabozantinib + Dasatinib; first compound 0.06325 µM) | relative viability (Cabozantinib + Dasatinib; first compound 0.2 µM) | relative viability (Cabozantinib + Dasatinib; first compound 0.6325 µM) | relative viability (Cabozantinib + Dasatinib; first compound 2 µM) | relative viability (Zosuquidar + Bortezomib; first compound 0.01 µM) | relative viability (Zosuquidar + Bortezomib; first compound 0.03162 µM) | relative viability (Zosuquidar + Bortezomib; first compound 0.1 µM) | relative viability (Zosuquidar + Bortezomib; first compound 0.3162 µM) | relative viability (Zosuquidar + Bortezomib; first compound 1 µM) |
| --- | --- | --- | --- | --- | --- | --- | --- | --- | --- | --- | --- | --- | --- | --- | --- | --- | --- | --- | --- | --- |
| NCI-H1437 | 0.862 | 0.918 | 0.902 | 0.91 | 0.9 | 0.335 | 0.282 | 0.279 | 0.297 | 0.352 | 0.263 | 0.617 | 0.371 | 0.377 | 0.309 | 0.468 | 0.442 | 0.475 | 0.53 | 0.463 |
| NCI-H1563 | 0.844 | 0.885 | 0.749 | 0.939 | 0.85 | 0.684 | 0.719 | 0.675 | 0.668 | 0.676 | 0.386 | 0.424 | 0.43 | 0.498 | 0.452 | 0.842 | 0.882 | 0.807 | 1.04 | 0.858 |
| NCI-H1650 | 0.913 | 1.01 | 0.92 | 1.07 | 1.05 | 0.483 | 0.57 | 0.395 | 0.388 | 0.366 | 0.261 | 0.292 | 0.294 | 0.303 | 0.225 | 0.227 | 0.226 | 0.206 | 0.219 | 0.222 |
| NCI-H1651 | 0.908 | 0.887 | 0.978 | 0.847 | 0.859 | 0.415 | 0.37 | 0.356 | 0.333 | 0.414 | 0.336 | 0.39 | 0.327 | 0.335 | 0.396 | 0.928 | 0.984 | 0.882 | 0.91 | 0.866 |
| NCI-H1666 | 0.919 | 1.01 | – | 1 | 0.746 | 0.594 | 0.572 | 0.534 | 0.581 | 0.573 | 0.727 | 0.899 | 0.766 | 0.839 | 0.795 | 1 | 0.905 | 0.714 | 1.15 | 0.798 |
| NCI-H1734 | 0.71 | 0.652 | 0.604 | 0.599 | 0.735 | 0.413 | 0.408 | 0.422 | 0.347 | 0.388 | 0.389 | 0.452 | 0.467 | 0.402 | 0.34 | 0.771 | 0.959 | 0.918 | 0.997 | 1.06 |
| NCI-H1755 | 0.842 | 0.851 | 0.821 | 0.83 | 0.884 | 0.615 | 0.608 | 0.601 | 0.662 | 0.568 | 0.299 | 0.479 | 0.396 | 0.313 | 0.239 | 0.923 | 0.873 | 0.901 | 1.12 | 0.934 |
| NCI-H1792 | 0.965 | 0.928 | 0.985 | 0.726 | 1.05 | 0.253 | 0.344 | 0.249 | 0.316 | 0.31 | – | 0.878 | 0.77 | 0.727 | 0.644 | 0.836 | 0.495 | 0.906 | 0.907 | 0.96 |
| NCI-H1915 | 0.886 | 0.92 | 0.897 | 0.931 | 0.91 | 0.366 | 0.38 | 0.37 | 0.366 | 0.361 | 0.32 | 0.316 | 0.294 | 0.352 | 0.322 | 1 | 0.995 | 1 | 1.01 | 1 |
| NCI-H1975 | 1.01 | 0.959 | 0.838 | 0.897 | 0.779 | 0.433 | 0.442 | 0.427 | 0.379 | 0.388 | 0.285 | 0.365 | 0.344 | 0.36 | 0.326 | 0.362 | 0.34 | 0.425 | 0.437 | 0.341 |
| NCI-H1993 | 0.82 | 0.89 | 0.72 | 0.753 | 0.782 | 0.51 | 0.453 | 0.503 | 0.501 | 0.515 | 0.513 | 0.488 | 0.49 | 0.498 | 0.523 | 1.02 | 0.99 | 1.08 | 1.17 | 1.11 |
| NCI-H2009 | 1.02 | 1.03 | 1.01 | 1.05 | 1.03 | 0.454 | 0.503 | 0.504 | 0.421 | 0.305 | 0.289 | 0.298 | 0.267 | 0.217 | 0.201 | 0.98 | 0.917 | 0.737 | 1.16 | 0.966 |
